Consider 23 molecules from paper PMC6835155, “Lessons from LIMK1 enzymology and their impact on inhibitor design” (Biochemical Journal, 2019).

Like-named read-outs stand apart in the source and are kept apart here.

One experiment concerns the target T1, LIMK1KD (Homo sapiens, UniProt P53667).
T1 construct: His6 (N, cleaved yes); made in house; host or cells: baculovirus; Sf9 for virus, TriEx insect cells for expression
In words: Differential (dynamic) scanning fluorimetry (DSF) assay, LIMK1KD. The format is binding. The following applies: for ΔTm at 10 µM: read-out: TM Shift LIMK1 (K).

The target in the next experiment is T2, LIMK2KD (Homo sapiens, UniProt P53671).
T2 construct: The cDNA coding for LIMK2 residues 330 to 632 was PCR amplified; His6 (N, cleaved yes); made in house; host or cells: baculovirus; Sf9 for virus, TriEx insect cells for expression
T2 sequence (P53671 330-632): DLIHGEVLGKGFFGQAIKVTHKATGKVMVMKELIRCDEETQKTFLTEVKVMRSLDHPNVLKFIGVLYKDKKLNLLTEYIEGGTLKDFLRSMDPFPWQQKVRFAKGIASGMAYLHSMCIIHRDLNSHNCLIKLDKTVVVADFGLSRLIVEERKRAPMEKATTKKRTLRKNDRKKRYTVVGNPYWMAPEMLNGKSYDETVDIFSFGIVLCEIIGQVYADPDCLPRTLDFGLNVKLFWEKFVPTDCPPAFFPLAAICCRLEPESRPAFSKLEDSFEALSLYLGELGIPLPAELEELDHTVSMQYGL
In words: Differential (dynamic) scanning fluorimetry (DSF) assay, LIMK2KD. The format is binding. The following applies: for ΔTm at 10 µM: read-out: TM Shift LIMK2 (K).

[1] abbreviates: 2 µM LIMK1KD, compound 10 µM, single shot.
[2] abbreviates: LIMK2KD, compound 10 µM, single shot.

T1 sequence (P53667 330-637): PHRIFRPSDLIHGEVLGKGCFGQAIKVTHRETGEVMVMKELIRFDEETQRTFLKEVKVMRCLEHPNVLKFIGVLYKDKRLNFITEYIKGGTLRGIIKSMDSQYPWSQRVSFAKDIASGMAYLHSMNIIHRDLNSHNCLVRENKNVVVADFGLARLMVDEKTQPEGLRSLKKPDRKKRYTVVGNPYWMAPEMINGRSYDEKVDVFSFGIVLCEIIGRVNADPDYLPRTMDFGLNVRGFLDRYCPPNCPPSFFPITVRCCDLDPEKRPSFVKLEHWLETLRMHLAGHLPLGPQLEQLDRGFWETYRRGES

As for `CNC(=O)Nc1ccc(-c2nc(N3CC4CCC(C3)O4)c3cnn(C4CCC5(CC4)OCCO5)c3n2)cc1` [WYE-125132 (WYE-132)], at LIMK1KD (setting [1]), the “TM Shift LIMK1 (K)” value is given as 0.5 K. Besides, on LIMK2KD (setting [2]), the “TM Shift LIMK2 (K)” value is recorded as 0.9 K.

Consider `C=CC(=O)Nc1cccc(Oc2nc(Nc3ccc(N4CCN(C)CC4)cc3)ncc2Cl)c1` [WZ3146], for which the “TM Shift LIMK1 (K)” value on LIMK1KD (setting [1]) is 1.9 K. The “TM Shift LIMK2 (K)” value on LIMK2KD (setting [2]) turned out to be 1.5 K.

With `C=CC(=O)Nc1cccc(Oc2nc(Nc3ccc(N4CCN(C)CC4)cc3OC)ncc2Cl)c1` [WZ4002], the ΔTm at 10 µM on LIMK1KD (setting [1]) came to 1 °C; at LIMK2KD (setting [2]), 1.8 °C.

Consider `CCC(=O)Nc1cccc(Oc2nc(Nc3ccc(N4CCN(C)CC4)cc3OC)ncc2Cl)c1` [WZ4003], for which the ΔTm at 10 µM is 0.4 °C on LIMK1KD (setting [1]) and -0.8 °C on LIMK2KD (setting [2]).

In the case of `C=CC(=O)Nc1cccc(Sc2nc(Nc3ccc(N4CCN(C)CC4)cc3)ncc2Cl)c1` [WZ8040], the “TM Shift LIMK1 (K)” value on LIMK1KD (setting [1]) is reported as 3.1 K. For the same molecule, at LIMK2KD (setting [2]), the “TM Shift LIMK2 (K)” value came out at 5.2 K.

Regarding `COC[C@H]1OC(=O)c2coc3c2[C@@]1(C)C1=C(C3=O)[C@@H]2CCC(=O)[C@@]2(C)C[C@H]1OC(C)=O` [Wortmannin], the ΔTm at 10 µM at LIMK1KD (setting [1]) amounted to 0.2 °C; on LIMK2KD (setting [2]), 0.1 °C.

On to `O=C(Nc1ccc(-c2ccnc(Nc3ccc(N4CCOCC4)cc3)n2)cc1)C1CCCN1` (stereo not shown) [XL019], for which the results for the ΔTm at 10 µM on LIMK1KD (setting [1]) and at LIMK2KD (setting [2]) were 4 °C and 1.6 °C, respectively.

As for `COc1ccc(Cl)c(Nc2nc3ccccc3nc2NS(=O)(=O)c2cccc(NC(=O)C(C)(C)N)c2)c1` [XL147], at LIMK1KD (setting [1]), the “TM Shift LIMK1 (K)” value is recorded as -0.1 K. For the same molecule, at LIMK2KD (LIMK2KD, compound 10 µM, single shot, 10 µM), the “TM Shift LIMK2 (K)” value stood at 0.6 K.

As for `Cc1c(C(=O)N2CCOc3ccc(-c4ccc(N)nc4)cc3C2)ccc(S(C)(=O)=O)c1F` [XL388], the “TM Shift LIMK1 (K)” value on LIMK1KD (setting [1]) is given as -1.4 K. Moreover, the “TM Shift LIMK2 (K)” value at LIMK2KD (setting [2]) was 2.7 K.

Turning to `C[C@@H](N)[C@H]1CC[C@H](C(=O)Nc2ccncc2)CC1.Cl.Cl` [Y-27632 2HCl], on LIMK1KD (setting [1]), the “TM Shift LIMK1 (K)” value is -0.7 K. Further, the “TM Shift LIMK2 (K)” value at LIMK2KD (setting [2]) was determined as 0.9 K.

For `Nc1ccc(C(=O)Nc2cccc(-c3nc(N4CCOCC4)c4oc5ncccc5c4n3)c2)cn1` [YM201636], the “TM Shift LIMK1 (K)” value on LIMK1KD (setting [1]) was found to be 0.6 K. Also, the “TM Shift LIMK2 (K)” value at LIMK2KD (setting [2]) is reported as 3.8 K.

Consider `Cc1cc(C)nc(NS(=O)(=O)c2ccc(NC(=S)NC(=O)COc3ccc(Br)cc3Cl)cc2)n1` [ZCL278], for which the “TM Shift LIMK1 (K)” value at LIMK1KD (setting [1]) is -1.0 K. The “TM Shift LIMK2 (K)” value at LIMK2KD (setting [2]) was found to be 1.2 K.

On to `CC(C)N(CCC(=O)c1ccc2ccccc2c1)Cc1ccccc1.Cl` [ZM 39923 HCl], for which the “TM Shift LIMK1 (K)” value at LIMK1KD (setting [1]) was 0.2 K. For the same molecule, the “TM Shift LIMK2 (K)” value on LIMK2KD (setting [2]) was -1.4 K.

Regarding `COc1cc2ncnc(Nc3ccc(Cl)cc3F)c2cc1OC` [ZM 306416], the “TM Shift LIMK1 (K)” value at LIMK1KD (setting [1]) was determined as 0.4 K. For the same molecule, at LIMK2KD (setting [2]), the “TM Shift LIMK2 (K)” value worked out at 1.8 K.

On to `Cc1cc(F)c(Nc2ncnc3cc(OCc4ccccc4)ccc23)cc1O.Cl` [ZM 323881 HCl], for which the “TM Shift LIMK1 (K)” value on LIMK1KD (setting [1]) is on record as 0.0 K. In addition, the “TM Shift LIMK2 (K)” value at LIMK2KD (setting [2]) stood at 2.6 K.

In the case of `Cc1ccc(NC(=O)c2cccc(N(C)C)c2)cc1NC(=O)c1ccc(O)cc1` [ZM 336372], the “TM Shift LIMK1 (K)” value on LIMK1KD (setting [1]) worked out at 0.7 K. Further, the “TM Shift LIMK2 (K)” value on LIMK2KD (setting [2]) was 0.2 K.

Take `COc1cc2c(Nc3ccc(NC(=O)c4ccccc4)cc3)ncnc2cc1OCCCN1CCOCC1` [ZM 447439]: the “TM Shift LIMK1 (K)” value at LIMK1KD (setting [1]) was 0.1 K. On LIMK2KD (setting [2]), the “TM Shift LIMK2 (K)” value worked out at 0.8 K.

Turning to `FC(F)c1nc2ccccc2n1-c1nc(N2CCOCC2)nc(N2CCOCC2)n1` [ZSTK474], the ΔTm at 10 µM was -1 °C on LIMK1KD (setting [1]) and 0 °C at LIMK2KD (setting [2]).

As for `O=P(O)(O)C(O)(Cn1ccnc1)P(=O)(O)O` [Zoledronic Acid], the ΔTm at 10 µM was -0.7 °C at LIMK1KD (setting [1]) and 1.3 °C at LIMK2KD (setting [2]).

With AZ23, the “TM Shift LIMK1 (K)” value at LIMK1KD (setting [1]) came to 3.6 K. Further, the “TM Shift LIMK2 (K)” value on LIMK2KD (setting [2]) stood at 0.8 K.

In the case of AZD4547, the “TM Shift LIMK1 (K)” value on LIMK1KD (setting [1]) is on record as -0.1 K. The “TM Shift LIMK2 (K)” value at LIMK2KD (setting [2]) is -0.1 K.

Turning to CHIR-98014, the “TM Shift LIMK1 (K)” value at LIMK1KD is recorded as 5.0 K. The “TM Shift LIMK2 (K)” value on LIMK2KD (10 µM) was found to be 0.0 K.

In the case of WYE-354, the “TM Shift LIMK1 (K)” value on LIMK1KD (setting [1]) was determined as 0.2 K. Further, the “TM Shift LIMK2 (K)” value on LIMK2KD (setting [2]) was 4.1 K.
